Measured values as given in patent US6348309B1, “Process for inactivating viruses in blood and blood products” (priority 1989, dated 2002).
Entries after “also recorded” stand apart in the source; their conditions may differ.

Tests used:
[1] = 1 to 2 mg/kg of body weight; cited from earlier work
adenovirus = assay: Photodynamic treatment of adenovirus with pre-incubation in the dark, titrated on FL cells (Example 7); format: cell-based; conditions: TB instead of MB, same conditions
[2] = test system: Eastern equine encephalomyelitis (EEE) virus; conditions: cited from earlier work

Cc1cc2nc3ccc(N(C)C)cc3[s+]c2cc1N.[Cl-] [TB, toluidine blue]
side effects in therapeutic use [1]: without any significant side effects
effect of photodynamic treatment on virus titer (adenovirus): not reduced
inactivation of EEE virus in plasma [2]: effectively inactivated; also recorded: failed to inactivate the virus completely
